These are literature values, as cited in patent publication US9877929B2, “Topical vitamin D and ubiquinol oral supplement compositions” (Premier Dental Products Company, priority 2011, dated 2018).

For data set [1] the following is noted: stable UBIQUINOL supplement.

As for `COc1c(O)c(C)c(C/C=C(\C)CC/C=C(\C)CC/C=C(\C)CC/C=C(\C)CC/C=C(\C)CC/C=C(\C)CC/C=C(\C)CC/C=C(\C)CC/C=C(\C)CCC=C(C)C)c(O)c1OC` [UBIQUINOL], where the note is “absorption from the gastrointestinal tract”, the “time required to reach peak concentration” value is listed as “approximately 6 hours”. Further, the “time to steady-state concentrations” value (oral treatment) was “two”. Besides, the peak blood values (orally, 150 mg per day of UBIQUINOL in a softgel, within 28 days) was 3.84 µg/mL. Besides, in data set [1], the water solubility entry is given as “less than 0.1 mg/ml”.
